Data from BigSolDB 2.1.

CC12CCC(CC1=O)C2(C)C (stereo not drawn)
solubility (mole fraction) (in acetone, 303.15 K): 0.553 | solubility (mole fraction) (in acetone, 308.15 K): 0.571 | solubility (mole fraction) (in acetone, 313.55 K): 0.594 | solubility (mole fraction) (in acetone, 319.25 K): 0.614 | solubility (mole fraction) (in acetone, 323.15 K): 0.627 | solubility (mole fraction) (in ethanol, 303.15 K): 0.365 | solubility (mole fraction) (in ethanol, 308.15 K): 0.396 | solubility (mole fraction) (in ethanol, 313.15 K): 0.412 | solubility (mole fraction) (in ethanol, 318.15 K): 0.451 | solubility (mole fraction) (in ethanol, 322.95 K): 0.508 | solubility (mole fraction) (in ethanol, 327.95 K): 0.538 | solubility (mole fraction) (in ethanol, 333.35 K): 0.588 | solubility (mole fraction) (in ethanol, 338.15 K): 0.63 | solubility (mole fraction) (in ethanol, 343.15 K): 0.699 | solubility (mole fraction) (in p-cymene, 303.85 K): 0.58 | solubility (mole fraction) (in p-cymene, 308.05 K): 0.589 | solubility (mole fraction) (in p-cymene, 313.15 K): 0.601 | solubility (mole fraction) (in p-cymene, 317.95 K): 0.609 | solubility (mole fraction) (in p-cymene, 323.65 K): 0.624 | solubility (mole fraction) (in p-cymene, 328.15 K): 0.631 | solubility (mole fraction) (in p-cymene, 333.35 K): 0.641 | solubility (mole fraction) (in p-cymene, 337.95 K): 0.652 | solubility (mole fraction) (in p-cymene, 343.05 K): 0.664 | solubility (mole fraction) (in p-xylene, 303.05 K): 0.6 | solubility (mole fraction) (in p-xylene, 308.15 K): 0.637 | solubility (mole fraction) (in p-xylene, 313.15 K): 0.66 | solubility (mole fraction) (in p-xylene, 318.15 K): 0.683 | solubility (mole fraction) (in p-xylene, 323.25 K): 0.714 | solubility (mole fraction) (in p-xylene, 327.85 K): 0.736 | solubility (mole fraction) (in p-xylene, 328.15 K): 0.739 | solubility (mole fraction) (in p-xylene, 333.15 K): 0.77 | solubility (mole fraction) (in p-xylene, 338.35 K): 0.795 | solubility (mole fraction) (in p-xylene, 343.15 K): 0.824
